Earlier results in patent publication US20240228966A1, “UROLITHIN FOR INCREASING STEM CELL FUNCTION” (SOCIETE DES PRODUITS NESTLE S.A., priority 2021, published 2024).

Tested on: human HSCs
Conditions: culture media supplemented with nicotinamide riboside; cited from earlier work

NC(=O)c1ccc[n+]([C@@H]2O[C@H](CO)[C@@H](O)[C@H]2O)c1 [nicotinamide riboside]
levels of engraftment in recipient humanised mice: significantly higher levels of engraftment
